Here are results for 31 molecules from patent publication US20260125372A1, “DYNAMIN-1-LIKE PROTEIN INHIBITORS AND USES THEREOF” (Astellas Engineered Small Molecules US, Incorporated, priority 2022, published 2026).

As a reminder, the IC50 is the midpoint of a concentration-inhibition curve. The low end stands for greater potency, the high end for weaker potency.

Molecules are shown by their SMILES.

This assay deals with T1, DRP1 (Homo sapiens, UniProt O00429).
T1 construct: Human DRIP1 (UniProtID: O00429.4, residues 1-699); made in house; host or cells: Escherichia coli BL21 CodonPlus DE3
T1 sequence (O00429 1-699 isoform O00429-4): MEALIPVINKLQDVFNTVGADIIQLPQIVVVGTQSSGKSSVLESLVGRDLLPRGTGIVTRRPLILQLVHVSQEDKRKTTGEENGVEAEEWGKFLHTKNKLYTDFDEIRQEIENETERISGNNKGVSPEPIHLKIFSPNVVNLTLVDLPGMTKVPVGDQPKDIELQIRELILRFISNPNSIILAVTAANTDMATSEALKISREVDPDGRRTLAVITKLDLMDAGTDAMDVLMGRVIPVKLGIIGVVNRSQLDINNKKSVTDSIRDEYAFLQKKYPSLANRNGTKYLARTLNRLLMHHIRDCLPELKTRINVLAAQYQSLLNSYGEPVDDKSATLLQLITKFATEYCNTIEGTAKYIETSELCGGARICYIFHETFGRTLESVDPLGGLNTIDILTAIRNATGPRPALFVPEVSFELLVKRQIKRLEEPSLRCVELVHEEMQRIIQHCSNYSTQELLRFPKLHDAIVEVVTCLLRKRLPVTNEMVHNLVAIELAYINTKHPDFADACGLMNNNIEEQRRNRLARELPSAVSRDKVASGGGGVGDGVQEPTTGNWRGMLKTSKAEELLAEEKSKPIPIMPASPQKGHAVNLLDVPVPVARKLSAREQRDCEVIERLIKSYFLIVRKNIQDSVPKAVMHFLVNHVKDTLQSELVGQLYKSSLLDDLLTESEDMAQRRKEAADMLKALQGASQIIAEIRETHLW
The assay can be described thus: AlphaLISA assay (His-DRP1 / MiD49-GST interaction). The format is binding. The conditions noted are these: His-DRP1 200 nM, MiD49-GST 20 nM, GMP-PNP 100 uM. On the procedure:
Human DRIP1 (UniProtID: O00429.4, residues 1-699), and human MiD49 (UnitProtIS: Q96C03.1, residues 126-454) was cloned into a pET15b vector as an N-terminal His-tag Fusion. All constructs were transformed in Escherichia coli host strain BL21 CodonPlus DE3. Bacteria was grown in LB media with 100 μg/ml ampicillin and 34 μg/ml chloramphenicol in an orbital shaker at 37° C. until OD600 reached 0.4, at which temperature was reduced to 16° C. Recombinant protein expression was expressed for 18 hr by the addition of IPTG at OD600 of about 0.8. All cultures were spun down and bacterial pellets were used for protein purification.
For His-DRP1, the pellets were resuspended in DRP-buffer A (20 mM Tris, 500 KCl, 1.89 β-ME, pH 8.0) and protease inhibitor cocktail (Roche), followed by cell disruption by sonication (400 W, pulse 3 sec on, 3 sec off, total 20 min). The lysate was centrifuged at 20,000 g and then supernatant applied to a preequilibrated Ni-NTA column with DRP-buffer A. The column was extensively washed with buffer A containing 50 mM imidazole. Purified His-DRP1 was eluted with DRP-buffer A containing 250 mM imidazole and dialyzed overnight at 4° C. (18 kDa cutoff) against DRP-buffer A to remove imidazole. For AlphaLISA, the His tag was retained on DRP1 full-length.
For MiD49-GST, the bacterial pellets were resuspended and sonicated in MID lysis buffer (25 mM Tris-HCl, pH 7.5, 500 mM NaCl, 5% glycerol, 1 mM TCEP, and 0.5% CHAPS). The lysate was pre-cleared at 20,300 g before applying to a glutathione column. Unbound proteins were washed using MID-buffer A (25 mM Tris-HCl, pH 7.5, 300 mM NaCl, 5% glycerol, 1 mM TCEP) and MID-buffer B (25 mM Tris-HCl, pH 7.5, 300 mM NaCl, 5% glycerol, 1 mM TCEP, 1 mM GSH). The protein was eluted with MID-buffer C (25 mM Tris-HCl, pH 7.5, 300 mM NaCl, 5% glycerol, 1 mM TCEP, 10 mM GSH). The target protein was concentrated in the ultra-filtration tube with MW cutoff 30 kDa and further purified by size-exclusion chromatography on a Superdex-200 column (GE Healthcare) in buffer A. Fractions containing MiD49-GST (126-454) were pooled, concentrated, flash-frozen as single-use aliquots in liquid nitrogen and stored at −80° C.
A total of 100 nl of compounds were plated in a 384-well AlphaPlate (PerkinElmer, Waltham, MA) at concentrations 100 uM to […] in DMSO (dilution by 3.165 for 11 concentration levels). Recombinant His-DRP1 (200 nM), MiD49-GST (20 nM), and GMP-PNP (100 uM) were mixed in assay buffer (PBS with 1.5% BSA, 1 mM DTT). Five microliters of the protein mixture were added to the plate and incubate at room temperature for 30 min. Glutathione donor beads and nickel chelate acceptor beads were diluted and mixed in assay buffer to obtain 40 μg/ml of each bead. Five microliters of the mixed beads were added to each well on the microplate leading to a final bead concentration of 20 µg/ml per well. The sealed plate was incubated at room temperature for 60 min and protected from light. The AlphaLISA signal was detected with an EnVision Multilabel Reader (excitation at 680 and emission 615 nm). GraphPad Prism was used to calculate the IC50 by applying sigmoidal dose-response fit (variable slope).
(In general: In Alpha technology, singlet oxygen from a donor bead excites a nearby acceptor bead.)
As to `COCCOc1cc(-c2cncs2)nc2ccc(NC(=O)[C@@H]3C[C@H]3C#N)cc12` (racemic) [Example 19, trans-2-cyano-N-(4-(2-methoxyethoxy)-2-(thiazol-5-yl)quinolin-6-yl)cyclopropane-1-carboxamide], the 50% inhibitory concentration (IC50) lay within 500 to 1000 nM.
`COCCOc1cc(-c2cncs2)nc2ccc(NC(=O)C3COC3)cc12` [Example 1, N-(4-(2-methoxyethoxy)-2-(thiazol-5-yl)quinolin-6-yl)oxetane-3-carboxamide] yielded an IC50 of less than 500 nM.
As for `CCOc1cc(-n2cnc(C)c2)nc2ccc(NC(=O)C3COC3)cc12` [Example 2, N-(4-ethoxy-2-(4-methyl-1H-imidazol-1-yl)quinolin-6-yl)oxetane-3-carboxamide], the figure is less than 500 nM.
In the case of `CCOc1cc(-c2cncs2)nc2ccc(NC(=O)C3COC3)cc12` [Example 3, N-(4-ethoxy-2-(thiazol-5-yl)quinolin-6-yl)oxetane-3-carboxamide], the IC50 is less than 500 nM.
`CCOc1cc(-c2cncs2)nc2ccc(NC(=O)C34CC(C3)C4)cc12` [Example 4, N-(4-ethoxy-2-(thiazol-5-yl)quinolin-6-yl)bicyclo[1.1.1]pentane-1-carboxamide] returned an IC50 of 500 to 1000 nM.
The value for `COc1cc(-c2cncs2)nc2ccc(NC(=O)C3COC3)cc12` [Example 5, N-(4-methoxy-2-(thiazol-5-yl)quinolin-6-yl) oxetane-3-carboxamide] was 500 to 1000 nM; that for `CCOc1cc(-c2cnc(C)s2)nc2ccc(NC(=O)C3COC3)cc12` [Example 6, N-(4-ethoxy-2-(2-methylthiazol-5-yl)quinolin-6-yl) oxetane-3-carboxamide] was less than 500 nM; that for `CCOc1cc(-c2cnc(OC)s2)nc2ccc(NC(=O)C3COC3)cc12` [Example 7, N-(4-ethoxy-2-(2-methoxythiazol-5-yl)quinolin-6-yl) oxetane-3-carboxamide] was less than 500 nM.
As for `CCOc1cc(-c2cnc(C3CC3)s2)nc2ccc(NC(=O)C3COC3)cc12` [Example 8, N-(2-(2-cyclopropylthiazol-5-yl)-4-ethoxyquinolin-6-yl) oxetane-3-carboxamide], the figure is 500 to 1000 nM.
`O=C(Nc1ccc2nc(-c3cncs3)cc(OCCO)c2c1)C1COC1` [Example 9, N-(4-(2-hydroxyethoxy)-2-(thiazol-5-yl)quinolin-6-yl) oxetane-3-carboxamide] displayed a 50% inhibitory concentration (IC50) of less than 500 nM.
The value for `O=C(Nc1ccc2nc(-c3cncs3)cc(OCCO)c2c1)C(F)(F)F` [Example 10, 2,2,2-trifluoro-N-(4-(2-hydroxyethoxy)-2-(thiazol-5-yl)quinolin-6-yl)acetamide] was 1000 to 10000 nM; that for `COCCOc1cc(-c2cnc(C)s2)nc2ccc(NC(=O)C3COC3)cc12` [Example 11, N-(4-(2-methoxyethoxy)-2-(2-methylthiazol-5-yl)quinolin-6-yl)oxetane-3-carboxamide] was 500 to 1000 nM; that for `CCOc1cc(-c2cnc(Cl)s2)nc2ccc(NC(=O)C3COC3)cc12` [Example 12, N-(2-(2-chlorothiazol-5-yl)-4-ethoxyquinolin-6-yl)oxetane-3-carboxamide] was 1000 to 10000 nM.
The value for `COCCOc1cc(-c2cncs2)nc2ccc(NC(=O)CO)cc12` [Example 13, 2-hydroxy-N-(4-(2-methoxyethoxy)-2-(thiazol-5-yl)quinolin-6-yl) acetamide] was 1000 to 10000 nM; that for `COCCOc1cc(-c2cncs2)nc2ccc(NC(=O)[C@H](C)O)cc12` [Example 14, (S)-2-hydroxy-N-(4-(2-methoxyethoxy)-2-(thiazol-5-yl)quinolin-6-yl)propanamide] was 1000 to 10000 nM.
The value for `COCCOc1cc(-c2cncs2)nc2ccc(NC(=O)[C@@H](C)O)cc12` [Example 15, (R)-2-hydroxy-N-(4-(2-methoxyethoxy)-2-(thiazol-5-yl)quinolin-6-yl)propanamide] was 1000 to 10000 nM; that for `COCCOc1cc(-c2cncs2)nc2ccc(NC(=O)[C@H]3C[C@@H](O)C3)cc12` [Example 16, cis-3-hydroxy-N-(4-(2-methoxyethoxy)-2-(thiazol-5-yl)quinolin-6-yl)cyclobutane-1-carboxamide] was less than 500 nM.
On to `COCCOc1cc(-c2cncs2)nc2ccc(NC(=O)[C@H]3C[C@H](O)C3)cc12` [Example 17, trans-3-hydroxy-N-(4-(2-methoxyethoxy)-2-(thiazol-5-yl)quinolin-6-yl)cyclobutane-1-carboxamide], for which the concentration for half-maximal inhibition (IC50) is less than 500 nM.
As for `COCCOc1cc(-c2cncs2)nc2ccc(NC(=O)C3CC3C)cc12` (stereo not shown) [Example 18, N-(4-(2-methoxyethoxy)-2-(thiazol-5-yl)quinolin-6-yl)-2-methylcyclopropane-1-carboxamide], the figure is less than 500 nM; as for `COCCOc1cc(-c2cncs2)nc2ccc(NC(=O)C3CC3C(F)(F)F)cc12` (stereo not shown) [Example 20, N-(4-(2-methoxyethoxy)-2-(thiazol-5-yl)quinolin-6-yl)-2-(trifluoromethyl)cyclopropane-1-carboxamide], 1000 to 10000 nM.
As for `COCCOc1cc(-c2cncs2)nc2ccc(NC(=O)COC)cc12` [Example 21, 2-methoxy-N-(4-(2-methoxyethoxy)-2-(thiazol-5-yl)quinolin-6-yl)acetamide], the figure is 1000 to 10000 nM; as for `COCCOc1cc(-c2cncs2)nc2ccc(NC(=O)C(C)OC)cc12` (stereo not shown) [Example 22, 2-methoxy-N-(4-(2-methoxyethoxy)-2-(thiazol-5-yl)quinolin-6-yl)propanamide], less than 500 nM.
`COCCOc1cc(-c2cncs2)nc2ccc(NC(=O)C3CCCOC3)cc12` (stereo not shown) [Example 23, N-(4-(2-methoxyethoxy)-2-(thiazol-5-yl)quinolin-6-yl)tetrahydro-2H-pyran-3-carboxamide]: the IC50 is less than 500 nM.
The value for `COCCOc1cc(-c2cncs2)nc2ccc(NC(=O)CCOC)cc12` [Example 24, 3-methoxy-N-(4-(2-methoxyethoxy)-2-(thiazol-5-yl)quinolin-6-yl)propanamide] was 500 to 1000 nM.
`CCCOC(C)C(=O)Nc1ccc2nc(-c3cncs3)cc(OCCOC)c2c1` (stereo not shown) [Example 25, N-(4-(2-methoxyethoxy)-2-(thiazol-5-yl)quinolin-6-yl)-2-propoxypropanamide] registered a 50% inhibitory concentration (IC50) of less than 500 nM.
For the molecule `CCOC(C)C(=O)Nc1ccc2nc(-c3cncs3)cc(OCCOC)c2c1` (stereo not shown) [Example 26, 2-ethoxy-N-(4-(2-methoxyethoxy)-2-(thiazol-5-yl)quinolin-6-yl)propanamide], the IC50 is less than 500 nM.
As for `COCCOc1cc(-c2cncs2)nc2ccc(NC(=O)C(F)(F)CO)cc12` [Example 27, 2,2-difluoro-3-hydroxy-N-(4-(2-methoxyethoxy)-2-(thiazol-5-yl)quinolin-6-yl)propanamide], the half-inhibitory concentration (IC50) lay within 500 to 1000 nM.
In turn, `COCCOc1cc(-c2cncs2)nc2ccc(NC(=O)C(C)C#N)cc12` (stereo not shown) [Example 28, 2-cyano-N-(4-(2-methoxyethoxy)-2-(thiazol-5-yl)quinolin-6-yl)propanamide] returned a half-maximal inhibitory concentration (IC50) of less than 500 nM.
In the case of `COCCOc1cc(-c2cncs2)nc2ccc(NC(=O)C3(OC)CC3)cc12` [Example 29, 1-methoxy-N-(4-(2-methoxyethoxy)-2-(thiazol-5-yl)quinolin-6-yl)cyclopropane-1-carboxamide], the IC50 is more than 10000 nM.
As for `COCCOc1cc(-c2cncs2)nc2ccc(NC(=O)C3CC(F)(F)C3)cc12` [Example 30, 3,3-difluoro-N-(4-(2-methoxyethoxy)-2-(thiazol-5-yl)quinolin-6-yl)cyclobutane-1-carboxamide], the figure is 1000 to 10000 nM; as for `COCCOc1cc(-c2cncs2)nc2ccc(NC(=O)C34CC(C3)C4)cc12` [Example 31, N-(4-(2-methoxyethoxy)-2-(thiazol-5-yl)quinolin-6-yl)bicyclo[1.1.1]pentane-1-carboxamide], 1000 to 10000 nM.
